# Laboratory results as given in PMC12274840 (The Journal of Biological Chemistry, 2025).
# Where two headings read alike, the source gives them in different places.
# Legend:
# [1] = tested on: E. coli KA797 cells carrying TEM-1 position 105 library; type: cell-based; details: for Fi AMP AVG: average of replicates
# [2] = target: T1, CTX-M-14 Y105G (Escherichia coli, UniProt Q9L5C7, Y108G); type: biochemical
# T1 construct: 29 to 291 of CTX-M-14 (Q9L5C7); His tag with TEV cleavage site (N); made in house; host or cells: E. coli BL21 (DE3) pLysS
# [3] = tested on: E. coli KA797 cells carrying KPC-2 position 105 library; type: cell-based; details: selection with labelled antibiotic
# [4] = tested on: E. coli KA797 cells carrying pUK21 with KPC-2 (Tat); experiment: microbe, parasite or virus in culture; type: cell-based; details: Escherichia coli, antibiotic alone
# [5] = target: T2, BlaC WT (Mycobacterium tuberculosis, UniProt P9WKD3); type: biochemical; details: pH 6.4
# T2 construct: correspond to residue numbers 41-307 of BlaC (Uniprot entry P9WKD3-1); His tag with TEV cleavage site (N); made in house; host or cells: E. coli BL21 (DE3) pLysS
# [6] = tested on: E. coli KA797 cells carrying pUK21 with CTX-M-14 WT (Tat); experiment: microbe, parasite or virus in culture; type: cell-based; details: Escherichia coli, antibiotic alone
# [7] = tested on: E. coli KA797 cells carrying pUK21 with TEM-1 WT (Sec); experiment: microbe, parasite or virus in culture; type: cell-based; details: Escherichia coli, antibiotic alone
# [8] = target: TEM-1 Y105G (Escherichia coli, UniProt P62593, Y103G); experiment: Steady-state kinetics of substrate hydrolysis, TEM-1 Y105G; type: biochemical; details: phosphate buffer pH 6.4, 25 °C
smiles,measurement,setting,value
CC1(C)S[C@@H]2[C@H](NC(=O)[C@H](N)c3ccccc3)C(=O)N2[C@H]1C(=O)O [ampicillin],Significance (Average fitnes AMP),[1]; AA 105 Ala,-
same,Fi AMP AVG,[1]; AA 105 Ala,-0.222
same,Fi AMP 1,"[1]; AA 105 Ala, replicate 1",-0.205
same,Fi AMP 2,"[1]; AA 105 Ala, replicate 2",-0.239
same,Significance (Average fitnes AMP),[1]; AA 105 Arg,-
same,Fi AMP AVG,[1]; AA 105 Arg,-0.576
same,Fi AMP 1,"[1]; AA 105 Arg, replicate 1",-0.568
same,Fi AMP 2,"[1]; AA 105 Arg, replicate 2",-0.584
same,Significance (Average fitnes AMP),[1]; AA 105 Asn,-
same,Fi AMP AVG,[1]; AA 105 Asn,-0.070
same,Fi AMP 1,"[1]; AA 105 Asn, replicate 1",-0.049
same,Fi AMP 2,"[1]; AA 105 Asn, replicate 2",-0.091
same,Significance (Average fitnes AMP),[1]; AA 105 Asp,-
same,Fi AMP AVG,[1]; AA 105 Asp,-0.429
same,Fi AMP 1,"[1]; AA 105 Asp, replicate 1",-0.401
same,Fi AMP 2,"[1]; AA 105 Asp, replicate 2",-0.457
same,Significance (Average fitnes AMP),[1]; AA 105 Cys,-
same,Fi AMP AVG,[1]; AA 105 Cys,-0.587
same,Fi AMP 1,"[1]; AA 105 Cys, replicate 1",-0.602
same,Fi AMP 2,"[1]; AA 105 Cys, replicate 2",-0.572
same,Significance (Average fitnes AMP),[1]; AA 105 Gln,-
same,Fi AMP AVG,[1]; AA 105 Gln,-0.282
same,Fi AMP 1,"[1]; AA 105 Gln, replicate 1",-0.271
same,Fi AMP 2,"[1]; AA 105 Gln, replicate 2",-0.293
same,Significance (Average fitnes AMP),[1]; AA 105 Glu,-
same,Fi AMP AVG,[1]; AA 105 Glu,-0.667
same,Fi AMP 1,"[1]; AA 105 Glu, replicate 1",-0.663
same,Fi AMP 2,"[1]; AA 105 Glu, replicate 2",-0.672
same,Significance (Average fitnes AMP),[1]; AA 105 Gly,-
same,Fi AMP AVG,[1]; AA 105 Gly,-0.061
same,Fi AMP 1,"[1]; AA 105 Gly, replicate 1",-0.036
same,Fi AMP 2,"[1]; AA 105 Gly, replicate 2",-0.087
same,Significance (Average fitnes AMP),[1]; AA 105 His,-
same,Fi AMP AVG,[1]; AA 105 His,-0.071
same,Fi AMP 1,"[1]; AA 105 His, replicate 1",-0.065
same,Fi AMP 2,"[1]; AA 105 His, replicate 2",-0.077
same,Significance (Average fitnes AMP),[1]; AA 105 Ile,-
same,Fi AMP AVG,[1]; AA 105 Ile,-0.580
same,Fi AMP 1,"[1]; AA 105 Ile, replicate 1",-0.558
same,Fi AMP 2,"[1]; AA 105 Ile, replicate 2",-0.602
same,Significance (Average fitnes AMP),[1]; AA 105 Leu,-
same,Fi AMP AVG,[1]; AA 105 Leu,-0.490
same,Fi AMP 1,"[1]; AA 105 Leu, replicate 1",-0.459
same,Fi AMP 2,"[1]; AA 105 Leu, replicate 2",-0.521
same,Significance (Average fitnes AMP),[1]; AA 105 Lys,-
same,Fi AMP AVG,[1]; AA 105 Lys,-0.754
same,Fi AMP 1,"[1]; AA 105 Lys, replicate 1",-0.749
same,Fi AMP 2,"[1]; AA 105 Lys, replicate 2",-0.759
same,Significance (Average fitnes AMP),[1]; AA 105 Met,-
same,Fi AMP AVG,[1]; AA 105 Met,-0.188
same,Fi AMP 1,"[1]; AA 105 Met, replicate 1",-0.138
same,Fi AMP 2,"[1]; AA 105 Met, replicate 2",-0.238
same,Significance (Average fitnes AMP),[1]; AA 105 Phe,-
same,Fi AMP AVG,[1]; AA 105 Phe,-0.048
same,Fi AMP 1,"[1]; AA 105 Phe, replicate 1",-0.041
same,Fi AMP 2,"[1]; AA 105 Phe, replicate 2",-0.054
same,Significance (Average fitnes AMP),[1]; AA 105 Pro,-
same,Fi AMP AVG,[1]; AA 105 Pro,-0.152
same,Fi AMP 1,"[1]; AA 105 Pro, replicate 1",-0.157
same,Fi AMP 2,"[1]; AA 105 Pro, replicate 2",-0.147
same,Significance (Average fitnes AMP),[1]; AA 105 Ser,-
same,Fi AMP AVG,[1]; AA 105 Ser,-0.203
same,Fi AMP 1,"[1]; AA 105 Ser, replicate 1",-0.219
same,Fi AMP 2,"[1]; AA 105 Ser, replicate 2",-0.186
same,Significance (Average fitnes AMP),[1]; AA 105 Thr,-
same,Fi AMP AVG,[1]; AA 105 Thr,-0.391
same,Fi AMP 1,"[1]; AA 105 Thr, replicate 1",-0.402
same,Fi AMP 2,"[1]; AA 105 Thr, replicate 2",-0.379
same,Fi AMP AVG,[1]; AA 105 Trp,0.019
same,Fi AMP 1,"[1]; AA 105 Trp, replicate 1",0.033
same,Fi AMP 2,"[1]; AA 105 Trp, replicate 2",0.006
same,Fi AMP AVG,[1]; AA 105 Tyr,0.000
same,Fi AMP 1,"[1]; AA 105 Tyr, replicate 1",0.000
same,Fi AMP 2,"[1]; AA 105 Tyr, replicate 2",0.000
same,Significance (Average fitnes AMP),[1]; AA 105 Val,-
same,Fi AMP AVG,[1]; AA 105 Val,-0.403
same,Fi AMP 1,"[1]; AA 105 Val, replicate 1",-0.371
same,Fi AMP 2,"[1]; AA 105 Val, replicate 2",-0.435
same,WT abs Fi 1,"[1]; absolute fitness of TEM-1 WT, AMP, replicate 1",0.351
same,WT abs Fi 2,"[1]; absolute fitness of TEM-1 WT, AMP, replicate 2",0.374
same,kcat,"[2]; phosphate buffer pH 6.4, 25 °C",48 ± 2 s⁻¹
same,Km,"[2]; read-out: KM^app, phosphate buffer pH 6.4, 25 °C",297 ± 10 µM
same,Fi AVG (average fitness of replicates),[3]; KPC-2 AA 105 = Ala,-2.717
same,Fi AVG (average fitness of replicates),[3]; KPC-2 AA 105 = Arg,-1.311
same,Significance of average fitness,[3]; KPC-2 AA 105 = Arg,-
same,Fi AVG (average fitness of replicates),[3]; KPC-2 AA 105 = Asn,-2.270
same,Significance of average fitness,[3]; KPC-2 AA 105 = Asn,-
same,Fi AVG (average fitness of replicates),[3]; KPC-2 AA 105 = Cys,-1.421
same,Significance of average fitness,[3]; KPC-2 AA 105 = Cys,-
same,Fi AVG (average fitness of replicates),[3]; KPC-2 AA 105 = Gln,-2.210
same,Significance of average fitness,[3]; KPC-2 AA 105 = Gln,-
same,Fi AVG (average fitness of replicates),[3]; KPC-2 AA 105 = Glu,-2.582
same,Significance of average fitness,[3]; KPC-2 AA 105 = Glu,-
same,Fi AVG (average fitness of replicates),[3]; KPC-2 AA 105 = Gly,-1.606
same,Significance of average fitness,[3]; KPC-2 AA 105 = Gly,-
same,Fi AVG (average fitness of replicates),[3]; KPC-2 AA 105 = His,-0.658
same,Fi AVG (average fitness of replicates),[3]; KPC-2 AA 105 = Leu,-1.411
same,Significance of average fitness,[3]; KPC-2 AA 105 = Leu,-
same,Fi AVG (average fitness of replicates),[3]; KPC-2 AA 105 = Met,-2.639
same,Significance of average fitness,[3]; KPC-2 AA 105 = Met,-
same,Fi AVG (average fitness of replicates),[3]; KPC-2 AA 105 = Phe,-0.181
same,Fi AVG (average fitness of replicates),[3]; KPC-2 AA 105 = Pro,-1.601
same,Significance of average fitness,[3]; KPC-2 AA 105 = Pro,-
same,Fi AVG (average fitness of replicates),[3]; KPC-2 AA 105 = Ser,-2.329
same,Significance of average fitness,[3]; KPC-2 AA 105 = Ser,-
same,Fi AVG (average fitness of replicates),[3]; KPC-2 AA 105 = Thr,-2.338
same,Fi AVG (average fitness of replicates),"[3]; KPC-2 AA 105 = Trp (WT, reference)",0.000
same,Fi AVG (average fitness of replicates),[3]; KPC-2 AA 105 = Tyr,-1.608
same,Significance of average fitness,[3]; KPC-2 AA 105 = Tyr,-
same,Fi AVG (average fitness of replicates),[3]; KPC-2 AA 105 = Val,-2.672
same,Significance of average fitness,[3]; KPC-2 AA 105 = Val,-
same,WT abs Fi 1 (absolute fitness),"[3]; KPC-2 WT (Trp 105), replicate 1",0.183
same,WT abs Fi 2 (absolute fitness),"[3]; KPC-2 WT (Trp 105), replicate 2",0.061
same,WT abs Fi 3 (absolute fitness),"[3]; KPC-2 WT (Trp 105), replicate 3",0.422
same,MIC,[4],200 µg/mL
same,kcat,[5],14 ± 2 s⁻¹
same,Km,[5]; read-out: KM^app,68 ± 3 µM
same,MIC,[6],1600 µg/mL
same,MIC,[7],12800 µg/mL
same,kcat,[8],601 ± 9 s⁻¹
